The record followed here is patent US20220281918A1, “PBP BINDING BICYCLIC PEPTIDE LIGANDS” (BicycleTx Limited, priority 2019, published 2022).

In experiment [1] the target is T1, PBP3 of E. coli (Escherichia coli, UniProt P0AD68). As to the kind of experiment: Fluorescence polarisation direct binding assay, PBP 3. To be noted: PBP Tested 3 (E. coli); fluorescent ligand. The protocol: Fluorescence polarisation was carried out using fluorescein-labelled peptides with unmodified PBP protein and measured using a PHERAstar FS by BMG Labtech fitted with a FP 485 520 520 optic module.
T1 sequence (P0AD68 1-577): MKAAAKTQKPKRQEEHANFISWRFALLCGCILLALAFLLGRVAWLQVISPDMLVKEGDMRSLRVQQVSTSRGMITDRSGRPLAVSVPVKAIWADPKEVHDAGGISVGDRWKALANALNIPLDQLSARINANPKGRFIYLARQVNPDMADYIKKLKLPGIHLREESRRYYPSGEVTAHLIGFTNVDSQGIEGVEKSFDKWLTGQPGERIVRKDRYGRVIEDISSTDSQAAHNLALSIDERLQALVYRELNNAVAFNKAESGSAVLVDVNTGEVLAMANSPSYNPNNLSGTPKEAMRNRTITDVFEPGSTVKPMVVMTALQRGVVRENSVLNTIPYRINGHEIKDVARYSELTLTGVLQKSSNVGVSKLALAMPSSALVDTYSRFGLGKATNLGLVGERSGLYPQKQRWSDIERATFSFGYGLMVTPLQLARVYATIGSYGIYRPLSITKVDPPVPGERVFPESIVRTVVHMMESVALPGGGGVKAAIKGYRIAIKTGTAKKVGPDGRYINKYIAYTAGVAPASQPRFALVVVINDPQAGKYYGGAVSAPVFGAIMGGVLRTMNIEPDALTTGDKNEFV
Fluorescent peptides at 10 mM in DMSO were diluted to 2.5 nM in binding buffer (10 mM HEPES, pH8, 300 mM NaCl, 2% glycerol). A two-fold dilution series of PBP protein was then prepared across 12 wells in binding buffer, with the highest concentration being 21 μM, and the lowest concentration being 17 nM.
10 μl diluted fluorescent peptide (2.5 nM) was added into 12 wells of a 384-Well NBS™ Low Volume Microplate (Fisher Scientific). 10 μl PBP dilution series was then added to the wells containing the fluorescent peptide, and 5 μl binding buffer was added to bring the total volume to 25 μl and the final concentration of peptide tracer to 1 nM. A control well lacking PBP protein was prepared with a final peptide concentration of 1 nM to a final volume of 25 μl in binding buffer. Fluorescence polarisation was measured every 5 minutes for a period of one hour at room temperature. The gain and focal height were optimised using the control well lacking protein. […]
Data were analysed in GraphPad software to derive values for the dissociation constant. […]
Of note, the direct binding values presented herein utilise a peptide ligand bound to a fluorescence tracer molecule.
On the technique in general: In fluorescence polarisation assays a small probe gives low polarisation when free and higher when bound to something large.

The test system of another experiment is E. cloacae (NCTC 13405). As to the kind of experiment: MIC assay (10 μl), E. cloacae. Format: cell-based. To be noted: Enterobacter cloacae, NCTC13405. The protocol:
(§1) Test compounds were dissolved at high concentration in the required solvent. Where DMSO was used to dissolve test compounds, a DMSO control with equivalent concentrations of DMSO was included for each test organism. For each test organism, a control antibiotic (for which susceptibility of the test organism was known) was tested in parallel. This allowed comparison of results between runs and validated the testing procedure and organism.
(§2) Using aseptic technique, serial 2-fold dilutions (across a 10 point range) of the test compounds were made in 5 μl of cation-adjusted Muller Hinton broth (CA-MHB), on the inverted lid of a 96-well plate. Inoculum for each test organism was made in phosphate-buffered saline (PBS) to match the turbidity of a 0.5 McFarland standard, and then diluted 100-fold. Each well (except negative control well) was inoculated with 5 μl of inoculum. For each test antibiotic, a negative control (no bacteria) was included, consisting of CA-MHB only; along with a positive control (no antibiotic) with CA-MHB and bacteria only. The base of the 96 well plate was used as a lid, and the plate was incubated inside a humidor to reduce evaporation. […] MIC was evaluated based on turbidity, using white light shone through the base of the plate to illuminate droplets.

Another experiment has as its system E. Coli GKCW101 (WT). As to the kind of experiment: MIC assay, E. coli GKCW101. The class given is cell-based. To be noted: Escherichia coli. How it is done: (§3) Minimum inhibitory concentration (MIC) assays were carried out using E. coli strains from the Zgurskaya lab engineered to harbour an inducible pore to make the outer membrane permeable (Krishnamoorthy et al. (2016) doi: https://doi.org/10.1128/AAC.01882-16). Strains used: GKCW101; GKCW102; GKCW103; and GKCW104.
(§4) Overnight cultures of bacteria were first prepared by transferring a single bacterial colony into 5 mL cation-adjusted Mueller-Hinton broth (CA-MHB) supplemented with kanamycin at 50 μg/mL. The following day, overnight cultures were diluted 1/100 in 25 mL CA-MHB with 50 μg/mL kanamycin and cultured until the optical density reached 0.3 as measured on a spectrometer at 600 nm.
(§5) Filter-sterilised arabinose was then added to a concentration of 0.1% w/v and subsequently cultured until the optical density at 600 nm equalled to 1.
(§6) The cultured medium was then diluted to 1×10^6 CFU mL^−1 in CA-MHB supplemented with 0.1% w/v arabinose and 50 μg/mL kanamycin. […]
(§7) A maximum 8 μl of peptide ligand was then added into the wells of column 1 and diluted two-fold across the plate. […] The optical density at 600 nm was then measured for each of the wells using a PheraStar FSx plate reader. MIC values were determined as the cutoff concentration between visible growth and no growth of the bacteria.

The subject of experiment [2] is E. Coli GKCW102 (WT-pore). As to the kind of experiment: MIC assay, E. coli GKCW102. Format: cell-based. To be noted: Escherichia coli. The protocol:
as §3, §4, §5, §6, §7

Experiment [3] relates to S. typhimurium (ATCC 19585). As to the kind of experiment: MIC assay (10 μl), S. typhimurium. The class given is cell-based. To be noted: Salmonella enterica. The protocol:
as §1, §2

The test system of another experiment is E. coli (ATCC 25922). As to the kind of experiment: MIC assay (10 μl), E. coli ATCC 25922. The class given is cell-based. To be noted: Escherichia coli, ATCC25922. The protocol:
as §1, §2

A further experiment has as its system E. Coli GKCW103 (ΔToIC). As to the kind of experiment: MIC assay, E. coli GKCW103. To be noted: Escherichia coli. Format: cell-based. The protocol:
as §3, §4, §5, §6, §7

In experiment [4] the target is T1, PBP3 of E. coli. As to the kind of experiment: Fluorescence polarisation competition binding assay Method 1 (BODIPY labelled penicillin tracer). To be noted: competition with Bocillin (BODIPY-penicillin). The protocol:
Fluorescence polarisation competition was carried out using a BODIPY labelled Penicillin tracer and unlabelled peptides, for competition to an unmodified PBP protein. Polarisation was measured using a PHERAstar FS by BMG Labtech fitted with a FP 485 520 520 optic module.
Fluorescent BODIPY labelled penicillin at 5 mM in DMSO were diluted to 6.25 nM in binding buffer (10 mM HEPES, pH8, 300 mM NaCl, 2% glycerol). Unmodified PBP were diluted to 2 μM in binding buffer. A two-fold dilution series of unmodified peptide was prepared across 12 wells in binding buffer, with the highest final well concentration being 60 μM, and the lowest concentration being 50 nM. 5 μl of the unmodified peptide dilution series or Carbenicillin were added to 12 wells of a 384-Well NBS™ Low Volume Microplate (Fisher Scientific). 10 μl diluted fluorescent BODIPY labelled penicillin (6.25 nM) were then added to the 12 wells containing the unmodified peptide dilutions. […]
Fluorescence polarisation was measured every 5 minutes for a period of one hour at room temperature. […]
Data were analysed in GraphPad software to derive values for the inhibition constant. […]

Another experiment addresses T2, S. pneumoniae PBP1a (S. pneumoniae, UniProt Q04707 37-719, limits assumed).
T2 sequence (looked up): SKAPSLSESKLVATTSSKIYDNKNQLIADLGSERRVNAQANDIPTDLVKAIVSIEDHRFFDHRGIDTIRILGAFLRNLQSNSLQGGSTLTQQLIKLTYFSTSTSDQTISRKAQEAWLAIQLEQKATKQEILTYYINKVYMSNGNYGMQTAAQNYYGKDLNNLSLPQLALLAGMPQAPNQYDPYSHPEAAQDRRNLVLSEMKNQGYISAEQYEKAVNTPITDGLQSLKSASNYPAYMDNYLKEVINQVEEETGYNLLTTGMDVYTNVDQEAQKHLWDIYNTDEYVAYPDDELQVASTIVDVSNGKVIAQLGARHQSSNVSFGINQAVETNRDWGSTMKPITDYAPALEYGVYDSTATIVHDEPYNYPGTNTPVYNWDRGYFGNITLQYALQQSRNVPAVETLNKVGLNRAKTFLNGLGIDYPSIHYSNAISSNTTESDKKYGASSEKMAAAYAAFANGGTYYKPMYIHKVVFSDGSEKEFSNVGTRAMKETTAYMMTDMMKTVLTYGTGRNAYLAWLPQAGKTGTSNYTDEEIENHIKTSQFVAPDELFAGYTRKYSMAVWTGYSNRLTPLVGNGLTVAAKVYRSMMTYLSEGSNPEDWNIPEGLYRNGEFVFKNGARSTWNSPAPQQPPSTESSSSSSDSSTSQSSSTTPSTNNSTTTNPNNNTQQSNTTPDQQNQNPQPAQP
As to the kind of experiment: fluorescence polarisation direct binding; fluorescein-labelled peptide, PBP titrated.

Experiment [5] deals with T3, PBP3 of E. coli (E. coli, UniProt P0AD68 57-577, limits assumed).
T3 construct: also called E. coli PBP3; FtsI
T3 sequence (looked up): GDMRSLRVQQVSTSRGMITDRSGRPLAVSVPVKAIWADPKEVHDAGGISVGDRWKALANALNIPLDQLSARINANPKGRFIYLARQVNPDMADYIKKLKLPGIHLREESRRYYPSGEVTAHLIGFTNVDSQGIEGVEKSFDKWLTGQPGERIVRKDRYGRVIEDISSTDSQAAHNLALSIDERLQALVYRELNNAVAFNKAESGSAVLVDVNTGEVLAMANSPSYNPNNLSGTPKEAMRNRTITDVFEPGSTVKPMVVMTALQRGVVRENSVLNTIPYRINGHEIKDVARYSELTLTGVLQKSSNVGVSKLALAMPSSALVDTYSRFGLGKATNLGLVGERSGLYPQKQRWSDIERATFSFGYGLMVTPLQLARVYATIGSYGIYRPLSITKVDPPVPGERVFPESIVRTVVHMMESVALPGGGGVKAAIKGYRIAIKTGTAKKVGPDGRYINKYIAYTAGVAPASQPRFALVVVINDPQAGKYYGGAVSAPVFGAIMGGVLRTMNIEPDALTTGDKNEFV
The experiment is described as above.

Another experiment deals with T4, PBP3 of P. aeruginosa (P. aeruginosa, UniProt G3XD46 50-579, limits assumed).
T4 construct: also called P. aeruginosa PBP3
T4 sequence (G3XD46 50-579 limits assumed): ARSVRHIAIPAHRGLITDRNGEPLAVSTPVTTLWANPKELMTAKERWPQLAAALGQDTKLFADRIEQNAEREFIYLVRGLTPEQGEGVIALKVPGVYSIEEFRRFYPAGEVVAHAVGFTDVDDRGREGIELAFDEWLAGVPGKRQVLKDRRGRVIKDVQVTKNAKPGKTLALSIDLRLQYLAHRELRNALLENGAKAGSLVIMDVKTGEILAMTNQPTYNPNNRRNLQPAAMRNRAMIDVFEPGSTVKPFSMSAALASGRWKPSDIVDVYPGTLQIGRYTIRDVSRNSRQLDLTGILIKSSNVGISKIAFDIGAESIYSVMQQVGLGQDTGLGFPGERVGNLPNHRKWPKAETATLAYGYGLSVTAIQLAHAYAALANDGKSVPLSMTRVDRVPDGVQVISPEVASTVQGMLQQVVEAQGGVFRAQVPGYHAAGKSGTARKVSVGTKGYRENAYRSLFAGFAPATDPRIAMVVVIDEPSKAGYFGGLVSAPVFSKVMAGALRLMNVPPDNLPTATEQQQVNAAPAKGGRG
The description is as above.

Broadly, the Kd is the constant that tells how readily two partners part at equilibrium. Read a high Kd as lower affinity. For orientation: MIC means the lowest concentration found to suppress growth. Read a low MIC as inhibition by little substance. In general, Ki refers to the equilibrium dissociation constant of an inhibitor or competing ligand from its target. A high value points to lower affinity.

Values after ≈ are worked out from the molar mass of the structure shown. Numbered stars: 1 amine (or outer) side, 2 acyl side, 3 side chain; on linkers, the order of the positions; unused ones are H or OH. Bridge positions count the residues as written; N and C are the ends. Square brackets hold non-standard residues; d marks the D form. Ends that are not written are not given here. TATA = O=C(CC[*:1])N1CN(C(=O)CC[*:2])CN(C(=O)CC[*:3])C1; fluorescein = label appended via Sar6-Lys linker; Sar = CNCC(=O)O

Molecule `Cc1cc(C)n2c1C=C1C=CC(CCC(=O)Nc3ccc(OCC(=O)N[C@@H]4C(=O)N5[C@@H]4SC(C)(C)[C@@H]5C(=O)O)cc3)=[N+]1[B-]2(F)F` [Bocillin] gave a dissociation constant Kd at PBP3 of E. coli [1] of 440 nM.

On to `CC1(C)S[C@@H]2[C@H](NC(=O)C(C(=O)O)c3ccccc3)C(=O)N2[C@H]1C(=O)O` (stereo partly drawn) [Carbenicillin, reference compound], for which the MIC in the experiment on E. cloacae (NCTC 13405) is 256 µg/mL (≈ 677 µM); against E. Coli GKCW101 (WT), 14 µg/mL (≈ 37 µM); in experiment [2] it was 0.8 µg/mL (≈ 2.11 µM); in experiment [3] it was 16 µg/mL (≈ 42.3 µM); against E. coli (ATCC 25922), 16 µg/mL (≈ 42.3 µM); with E. Coli GKCW103 (ΔToIC) it was 2.3 µg/mL (≈ 6.08 µM). In addition, the affinity at PBP3 of E. coli [4] corresponds to a Ki of 520 nM.

ACHDWDYRHLCYWRCA[Sar][Sar][Sar][Sar][Sar][Sar]K-fluorescein (linker 2-11-15 via TATA, Bicyclic peptide) [BCY9383 with fluorescein appended to the C-terminus with a Sar6-Lysine linker]: in the experiment with S. pneumoniae PBP1a, the Kd came to 400 nM.

In turn, ACPYTSCPPHTMCA[Sar][Sar][Sar][Sar][Sar][Sar]K-fluorescein (linker 2-7-13 via TATA, Bicyclic peptide) [BCY9378 with fluorescein appended to the C-terminus with a Sar6-Lysine linker] showed a Kd with S. pneumoniae PBP1a of 80 nM.

B1: BCY12130 with fluorescein appended to the C-terminus with a Sar6-Lysine linker (peptide)
peptide: ACSFPKCPWVEGCA
modifications: Ci, Cii and Ciii cyclised with TATA scaffold; fluorescein appended to the C-terminus with a Sar6-Lysine linker
notes: Bicyclic peptide
The molecule B1 had a Kd with PBP3 of E. coli [5] of 2000 nM. Further, the binding result in the experiment with PBP3 of P. aeruginosa is reported as “no binding”.
